Experimental data reported in PMC8548882, “The Trp-rich Antimicrobial Amphiphiles With Intramolecular Aromatic Interactions for the Treatment of Bacterial Infection” (Frontiers in Microbiology, 2021).
In brackets after ≈: the same amount, converted by molar mass. Like-named read-outs stand apart in the source and are kept apart here. Ends that are not written are not given here.

What was measured:
S.typhimurium 7731 = format: cell-based, Salmonella enterica serovar typhimurium C77-31
Excerpt: (§1) The tested strains were kindly provided by the laboratory of Veterinary Microbiology and Immunology, the College of Veterinary Medicine, Northeast Agricultural University (gram-negative bacteria, Salmonella enterica serovar typhimurium C77-31, Salmonella typhimurium ATCC 14028, Escherichia coli ATCC 25922, Pseudomonas aeruginosa ATCC 27853 and gram-positive bacteria, Staphylococcus aureus ATCC 29213, Staphylococcus aureus ATCC 43300, Staphylococcus epidermidis ATCC 12228, Staphylococcus aureus ATCC 25923).

S.typhimurium 14028 = format: cell-based, Salmonella typhimurium ATCC 14028
Excerpt: as §1

E. coli 25922 = format: cell-based, Escherichia coli ATCC 25922
Excerpt: as §1

P.aeruginosa 27853 = format: cell-based, Pseudomonas aeruginosa ATCC 27853
Excerpt: as §1
(§2) The famous microtiter dilution, National Committee for Clinical Laboratory Standards, was adopted to measure the antimicrobial ability of the engineering peptides ([Chou et al., 2016]). In brief, the 50μl with serial dilution was incubated with the same volume bacteria (1×10^5CFU/ml in midi-logarithmic phase) in a 96-well plate 18–24h at 37°C. The positive control was the bacteria treated with culture medium and the negative control was merely culture medium. The MICs (minimum inhibitory concentrations) were defined as the lowest concentration of peptides that prevented the production of visible turbidity ([Tossi et al., 2000]).

S.aureus 29213 = format: cell-based, Staphylococcus aureus ATCC 29213
Excerpt: as §1, §2

S.epidermidis 12228 = format: cell-based, Staphylococcus epidermidis ATCC 12228
Excerpt: as §1

S.aureus 25923 = format: cell-based, Staphylococcus aureus ATCC 25923
Excerpt: as §1, §2

MRSA 43300 = format: cell-based, Staphylococcus aureus ATCC 43300; conditions: microtiter dilution, 1×10^5CFU/ml, 18–24h at 37°C, visible turbidity
Excerpt: as §1, §2

[1] = system: panel of gram-negative and gram-positive bacteria; conditions: over the eight strains of Table 2
Procedure: as §2

[2] = system: human red blood cells (hRBCs); experiment: Hemolytic activity; format: cell-based; conditions: for HC5 (MHC), lowest concentration that caused 5% hemolysis: hRBC in PBS pH 7.2, 1h at 37°C, absorbance 570nm, vs 0.1% Triton X-100, highest test concentration 128μM; for Therapeutic index (TI): hRBC, ratio of MHC to GM
Excerpt: The hemolytic activity of peptides was reflected by the releasing amount of hemoglobin from erythrocytes lysis induced by peptides ([Dong et al., 2014a]). The informed consent was obtained from the volunteers (3 healthy 25-year-old male volunteers) before the experiment. In brief, the human red blood cells (hRBCs), donated by volunteer, were collected, washed, and resuspended in PBS at pH 7.2. The peptides were serially diluted in PBS at different concentrations in a 96-well cell cultures plate and incubated with 50μl hRBCs for 1h at 37°C. The 0.1% Trition X-100 was selected as the treatment of positive control and the negative control was the hRBCs treated with PBS. After 1h incubation, the supernatant, obtained by centrifuging the plate 1,000g for 5min, was transferred to a brand-new plate for absorbance detection at 570nm. The releasing amount of hemoglobin was converted to the percent hemolysis against to 0.1% Triton X-100 treatment. The lowest concentration caused 5% hemolysis of hRBCs and was defined as the lowest hemolytic concentration of antimicrobial peptide.

IPEC-J2 cells = format: cell-based, porcine; conditions: for Therapeutic index (TI): IPEC-J2, ratio of IC50 to GM
Procedure: (§3) The MTT (3-[4,5 dimethylthiozol-2-yl]-2,5-diphenylterazoliumbromide) dye was selected to analyze the cytotoxicity of peptides against the murine macrophage cell RAW 264.7 (National Collection of Authenticated Cell Cultures, Shanghai, China), human embryonic kidneys (HK293T), and the porcine intestinal epithelial cells (IPEC-J2) as in our previously study ([Li et al., 2020]). In short, the cells (10^4 cells/well) were seeded into 96-well plates and were cultivated overnight. Then the peptides with different final concentration (2μM, 4μM, 8μM, 16μM, 32μM, 64μM, and 128μM) were introduced into the plate and challenged with cells for 24h. After overnight incubation, the 50μl MTT (0.5mg/ml) was added into the cell cultures for 4h. Then the plate was centrifuged to discard the supernatants and obtain the formazan crystals. The DMSO (dimethyl sulfoxide) was employed as a solvent to dissolve the formazan crystals on the bottom of the plate and the optical density was read at 492nm with a microplate reader.

HEK 293T cells = format: cell-based, human; conditions: ratio of IC50 to GM
Procedure: as §3

RAW 264.7 cells = format: cell-based, murine; conditions: RAW264.7; ratio of IC50 to GM
Procedure: as §3

[3] = system: hRBC, IPEC-J2, HEK 293T, RAW264.7
Procedure: Besides, the therapeutic index of peptide in the mammalian eukaryotic cell (RAW 264.7, HEK 293T, and IPEC J2) was also calculated to study the biocompatibility of peptides.

[4] = system: Pseudomonas aeruginosa ATCC 27853; experiment: Subcutaneous abscess model; conditions: 5mg/kg
[5] = microtiter dilution, 1×10^5CFU/ml, 18–24h at 37°C, visible turbidity

Compound | MIC (S.typhimurium 7731) [µM] | MIC (S.typhimurium 14028) [µM] | MIC (E. coli 25922) [µM] | MIC (P.aeruginosa 27853; 27853) [µM] | MIC (S.aureus 29213; 29213) [µM] | MIC (S.epidermidis 12228) [µM] | MIC (S.aureus 25923; 25923) [µM] | MIC (MRSA 43300) [µM] | GMMIC, geometric mean of the MICs [1] [µM] | HC5 (MHC), lowest concentration that caused 5% hemolysis [2] [µM] | Therapeutic index (TI) [2] | Therapeutic index (TI) (IPEC-J2 cells) | Therapeutic index (TI) (HEK 293T cells) | Therapeutic index (TI) (RAW 264.7 cells) | GMTI, geometric mean of TI of various cell lines [3] | other results
VKKWVKKWVKKWVKKA-NH2 [VW4] | 2 | 4 | 4 | 2 | 4 | 4 | 4 | 4 | 3.36 | >128 | > 38.1 | 1855.95 | 2751.71 | 1855.65 | >775.15 | –
VKKWVKKWVKKAVKKA-NH2 [VW2] | 64 | 64 | 8 | 8 | 64 | 64 | 64 | 64 | 41.50 | >128 | > 3.08 | 136.45 | 144.05 | 136.50 | >53.63 | –
VKKLVKKLVKKAVKKA-NH2 [VL2] | >64 | >64 | >64 | 64 | >64 | >64 | >64 | >64 | 117.38 | >128 | >1.09 | 87.76 | 71.65 | 64.03 | >25.74 | –
CC[C@H](C)[C@H](NC(=O)CN)C(=O)NCC(=O)N[C@@H](C)C(=O)N[C@H](C(=O)N[C@@H](CC(C)C)C(=O)N[C@@H](CCCCN)C(=O)N[C@H](C(=O)N[C@@H](CC(C)C)C(=O)N[C@H](C(=O)N[C@H](C(=O)NCC(=O)N[C@@H](CC(C)C)C(=O)N1CCC[C@H]1C(=O)N[C@@H](C)C(=O)N[C@@H](CC(C)C)C(=O)N[C@H](C(=O)N[C@@H](CO)C(=O)N[C@@H](Cc1c[nH]c2ccccc12)C(=O)N[C@H](C(=O)N[C@@H](CCCCN)C(=O)N[C@@H](CCCNC(=N)N)C(=O)N[C@@H](CCCCN)C(=O)N[C@@H](CCCNC(=N)N)C(=O)N[C@@H](CCC(N)=O)C(=O)N[C@@H](CCC(N)=O)C(N)=O)[C@@H](C)CC)[C@@H](C)CC)[C@@H](C)O)[C@@H](C)O)C(C)C)C(C)C [Melittin, reference compound] | – | – | – | – | – | – | – | 4 (≈ 11.4 µg/mL) | 1.68 | – | – | – | – | – | – | MIC (P.aeruginosa 27853; [5]): 2 µM (≈ 5.69 µg/mL); MIC (S.aureus 29213; [5]): 4 µM (≈ 11.4 µg/mL); MIC (S.aureus 25923; [5]): 2 µM (≈ 5.69 µg/mL); cell viability (IPEC-J2 cells; IPEC J2, MTT, 24h, 32μM): below 5%; IC50 (IPEC-J2 cells; IPEC-J2, MTT, 24h, tested 2–128μM): 3.34 µM; GMTI, geometric mean of TI of various cell lines ([3]; hRBC, IPEC-J2, HEK 293T, RAW264.7): 1.71
VKKWVKKWVKKAVKKW-NH2 [VW3] | 8 | 8 | 4 | 4 | 16 | 8 | 8 | 8 | 7.34 | >128 | > 17.44 | 646.97 | 1449.42 | 647.10 | >320.73 | –
VKKLVKKLVKKLVKKL-NH2 [VL5] | 2 | 4 | 8 | 2 | 8 | 4 | 8 | 8 | 4.76 | >128 | > 26.89 | 957.83 | 1574.26 | 404.20 | >357.80 | TI (hRBC) fold smaller than VW5 [2]: about 2.8 fold
VKKLVKKLVKKLVKKA-NH2 [VL3] | 32 | 32 | 16 | 8 | 16 | 32 | 32 | – | – | – | – | – | – | – | >122.44 | –
VKKLVKKLVKKAVKKL-NH2 [VL4] | 16 | 32 | 16 | 8 | 16 | 32 | 16 | – | – | – | – | – | – | – | >104.47 | –
O=C(O)c1cn(C2CC2)c2cc(N3CCNCC3)c(F)cc2c1=O [ciprofloxacin, reference compound] | – | – | – | – | – | – | – | – | – | – | – | – | – | – | – | IL-1β in serum ([4]; Day 3, ELISA, saline 95.99±4.31): 72.18 ± 3.54 pg/mL; IL-1α in serum ([4]; Day 3, ELISA, saline 99.95±4.71): 80.08 ± 4.04 pg/mL; TNF-α in serum ([4]; Day 3, ELISA, saline 1020.654±51.08): 773.35 ± 40.55 pg/mL; IL-2 in serum ([4]; Day 3, ELISA, saline 1492.65±48.11): 1250.826 ± 43.60 pg/mL; histological examination of abscess lesion, dermal tissue structures ([4]; HE staining, Day 3): relative integrity
